Test system: human maximum recommended daily dose, FDA database
Assay: DSSTox (FDAMDD) FDA Maximum (Recommended) Daily Dose Database
Conditions: hits give low values
In short: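 MRDD values come from clinical trials with daily oral dosing, usually for 3–12 months, for the average adult, in mg/day converted to mg/kg-bw/day assuming 60 kg. Antineoplastic mg/m2 doses are divided by 37. Activity score maps log10(1/MRDD mmol) onto 1–100.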

[1] = TherapeuticCategory: antipsychotic
[2] = TherapeuticCategory: antibacterial
[3] = TherapeuticCategory: skeletal muscle relaxant
[4] = TherapeuticCategory: anticholinergic
[5] = TherapeuticCategory: anti inflammatory

CC1(O)CCC(C(C)(C)O)CC1 (stereo not given) gave a maximum recommended daily dose (mmol/kg-bw/day) (TherapeuticCategory: cis form hydrate as expectorant) of 0.116.

In the case of CN(C)CCCN1c2ccccc2Sc2ccccc21, the maximum recommended daily dose (mmol/kg-bw/day) [1] is reported as 0.0587.

CCCCc1ccc(C(=O)O)nc1 gave a maximum recommended daily dose (mmol/kg-bw/day) (TherapeuticCategory: none) of 0.0418.

Work on COC1=CC(=O)C[C@@H](C)[C@]12Oc1c(Cl)c(OC)cc(OC)c1C2=O yielded a maximum recommended daily dose (mmol/kg-bw/day) (TherapeuticCategory: antifungal) of 0.0354.

O=C(c1ccc(OCCN2CCCCC2)cc1)c1c(-c2ccc(O)cc2)sc2cc(O)ccc12 showed a maximum recommended daily dose (mmol/kg-bw/day) (TherapeuticCategory: antiosteoporotic, antiestrogen) of 0.0211.

In the case of Cc1ccnc(NS(=O)(=O)c2ccc(N)cc2)n1, the maximum recommended daily dose (mmol/kg-bw/day) [2] is reported as 0.252.

For Cc1ncsc1CCCl, the maximum recommended daily dose (mmol/kg-bw/day) (TherapeuticCategory: sedative, hypnotic, anticonvulsant) was 0.0396.

CCN(CC)CCOC(=O)C1(c2ccccc2)CCCC1 was tested, and the maximum recommended daily dose (mmol/kg-bw/day) (TherapeuticCategory: antitussive) was 0.0173.

Molecule CC[N+](CC)(CC)CCOc1cccc(OCC[N+](CC)(CC)CC)c1OCC[N+](CC)(CC)CC has a maximum recommended daily dose (mmol/kg-bw/day) [3] of 0.00224.

With CC(C(=O)O)c1cccc(Oc2ccccc2)c1 (stereo not given) the maximum recommended daily dose (mmol/kg-bw/day) (TherapeuticCategory: analgesic, anti inflammatory) was 0.206.

CC(C)(C)NCC(O)c1cc(Cl)c(N)c(Cl)c1 (stereo not given) gave a maximum recommended daily dose (mmol/kg-bw/day) (TherapeuticCategory: antiasthmatic) of 3.61e-06.

Work on CN1CCN(CCC=C2c3ccccc3Sc3ccc(S(=O)(=O)N(C)C)cc32)CC1 yielded a maximum recommended daily dose (mmol/kg-bw/day) (TherapeuticCategory: antipsychotic, dopamine receptor antagonist) of 0.00113.

With C[N+]1(C)CCC(=C(c2ccccc2)c2ccccc2)CC1 the maximum recommended daily dose (mmol/kg-bw/day) [4] was 0.0341.

O=C(O)Cc1ccccc1Nc1c(Cl)cccc1Cl was tested, and the maximum recommended daily dose (mmol/kg-bw/day) [5] was 0.0127.

With CC[N+](C)(CC)CCOC(=O)C1c2ccccc2Oc2ccccc21 the maximum recommended daily dose (mmol/kg-bw/day) [4] was 0.0159.

Nc1nc(N)c2nc(-c3ccccc3)c(N)nc2n1 was tested, and the maximum recommended daily dose (mmol/kg-bw/day) (TherapeuticCategory: diuretic) was 0.0131.

Work on CCCC(=O)O[C@]1(C(=O)COC(=O)CC)[C@@H](C)C[C@H]2[C@@H]3CCC4=CC(=O)C=C[C@]4(C)[C@@]3(F)[C@@H](O)C[C@@]21C yielded a maximum recommended daily dose (mmol/kg-bw/day) (TherapeuticCategory: glucocorticoid) of 0.000289.

Molecule CC(=O)O[C@H]1C[C@@]2(C)[C@@H](C[C@@H](O)[C@H]3[C@@]4(C)CC[C@@H](O)[C@@H](C)[C@@H]4CC[C@@]32C)/C1=C(\CCC=C(C)C)C(=O)O has a maximum recommended daily dose (mmol/kg-bw/day) [2] of 0.0484.

Molecule C#C[C@]1(O)CC[C@H]2[C@@H]3CCC4=C[C@@H](O)CC[C@@H]4[C@H]3CC[C@@]21C has a maximum recommended daily dose (mmol/kg-bw/day) (TherapeuticCategory: progestogen) of 5.56e-05.

For CN(C)[C@@H]1C(=O)C(C(N)=O)=C(O)[C@@]2(O)C(=O)C3=C(O)c4c(O)cccc4[C@@](C)(O)[C@H]3[C@H](O)[C@@H]12, the maximum recommended daily dose (mmol/kg-bw/day) [2] was 0.0671.

With CN[C@@H]1CCc2[nH]c3ccc(C(N)=O)cc3c2C1 the maximum recommended daily dose (mmol/kg-bw/day) (TherapeuticCategory: antimigraine) was 0.000514.

For O=C1OC(c2ccc(O)c(S(=O)(=O)O)c2)(c2ccc(O)c(S(=O)(=O)O)c2)c2c(Br)c(Br)c(Br)c(Br)c21, the maximum recommended daily dose (mmol/kg-bw/day) (TherapeuticCategory: diagnostic aid) was 0.00597.

For CCCN1C[C@H](CSC)C[C@@H]2c3cccc4[nH]cc(c34)C[C@H]21, the maximum recommended daily dose (mmol/kg-bw/day) (TherapeuticCategory: antiparkinsonian, dopamine receptor agonist) was 0.000159.

Molecule N[C@@H](C(=O)N[C@@H]1C(=O)N2C(C(=O)O)=C(CSc3cn[nH]n3)CS[C@H]12)c1ccc(O)cc1 has a maximum recommended daily dose (mmol/kg-bw/day) [2] of 0.0361.

With OCc1ccccc1 the maximum recommended daily dose (mmol/kg-bw/day) (TherapeuticCategory: none) was 0.0462.

CCC(=O)O[C@]1(c2ccccc2)CCN(C)C[C@@H]1C showed a maximum recommended daily dose (mmol/kg-bw/day) (TherapeuticCategory: narcotic analgesic) of 0.00191.

Molecule CCC(=O)O[C@@H]1CC(=O)O[C@H](C)C/C=C/C=C/[C@H](O[C@@H]2CC[C@H](N(C)C)[C@@H](C)O2)[C@H](C)C[C@H](CC=O)[C@H](O[C@@H]2O[C@H](C)[C@@H](O[C@H]3C[C@@](C)(O)[C@@H](O)[C@H](C)O3)[C@H](N(C)C)[C@H]2O)[C@H]1OC has a maximum recommended daily dose (mmol/kg-bw/day) [2] of 0.0742.

Molecule N[C@@H](Cc1ccc(O)c(O)c1)C(=O)O has a maximum recommended daily dose (mmol/kg-bw/day) (TherapeuticCategory: antiparkinsonian) of 0.674.

O=C(O)c1cccnc1 showed a maximum recommended daily dose (mmol/kg-bw/day) (TherapeuticCategory: vitamin) of 0.102.

Molecule Cc1ccc2c(-c3ccccc3)nc(=O)n(C(C)C)c2c1 has a maximum recommended daily dose (mmol/kg-bw/day) [5] of 0.0719.

In the case of C[C@H](N)[C@H](O)c1cccc(O)c1, the maximum recommended daily dose (mmol/kg-bw/day) (TherapeuticCategory: adrenergic) is reported as 0.0498.

With NC(N)=NS(=O)(=O)c1ccc(N)cc1 the maximum recommended daily dose (mmol/kg-bw/day) [2] was 0.0934.

CCOC(=O)c1cncn1C(C)c1ccccc1 (stereo not given) gave a maximum recommended daily dose (mmol/kg-bw/day) [4] of 0.00246.

Molecule NCCCCCC(=O)O has a maximum recommended daily dose (mmol/kg-bw/day) (TherapeuticCategory: hemostatic) of 1.52.

With CCc1nn(CCCN2CCN(c3cccc(Cl)c3)CC2)c(=O)n1CCOc1ccccc1 the maximum recommended daily dose (mmol/kg-bw/day) (TherapeuticCategory: antidepressant, seratonin receptor antagonist) was 0.0213.

CCN(CC)CC#CCOC(=O)C(O)(c1ccccc1)C1CCCCC1 (stereo not given) gave a maximum recommended daily dose (mmol/kg-bw/day) [4] of 0.000932.

Molecule CCNCC(O)c1cccc(O)c1 (stereo not given) has a maximum recommended daily dose (mmol/kg-bw/day) (TherapeuticCategory: antihypotensive) of 0.0046.

O=C(O)CCC(=O)c1ccc(-c2ccccc2)cc1 was tested, and the maximum recommended daily dose (mmol/kg-bw/day) [5] was 0.059.

C[C@]12CCC(=O)C=C1C=C[C@@H]1[C@@H]2CC[C@@]2(C)[C@H]1CC[C@@]2(O)CCC(=O)O showed a maximum recommended daily dose (mmol/kg-bw/day) (TherapeuticCategory: diuretic) of 0.0371.

CN1CCCC(n2nc(Cc3ccc(Cl)cc3)c3ccccc3c2=O)CC1 (stereo not given) was tested, and the maximum recommended daily dose (mmol/kg-bw/day) (TherapeuticCategory: antiallergic, antiasthmatic, antihistaminic) was 0.000348.

Cc1ncc([N+](=O)[O-])n1CCO showed a maximum recommended daily dose (mmol/kg-bw/day) (TherapeuticCategory: antiprotozoal) of 0.195.

Molecule CC[N+]1(C)CCCC(OC(=O)C(O)(c2ccccc2)c2ccccc2)C1 (stereo not given) has a maximum recommended daily dose (mmol/kg-bw/day) [4] of 0.000576.

CCCc1nc2c(C)cc(-c3nc4ccccc4n3C)cc2n1Cc1ccc(-c2ccccc2C(=O)O)cc1 was tested, and the maximum recommended daily dose (mmol/kg-bw/day) (TherapeuticCategory: antihypertensive) was 0.00258.

In the case of CC[C@H]1OC(=O)[C@H](C)[C@@H](O[C@H]2C[C@@](C)(OC)[C@@H](O)[C@H](C)O2)[C@H](C)[C@@H](O[C@@H]2O[C@H](C)C[C@H](N(C)C)[C@H]2OC(C)=O)[C@](C)(O)C[C@@H](C)C(=O)[C@H](C)[C@@H](O)[C@]1(C)O, the maximum recommended daily dose (mmol/kg-bw/day) [2] is reported as 0.0629.

CNCCc1ccc(OC(=O)C(C)C)c(OC(=O)C(C)C)c1 showed a maximum recommended daily dose (mmol/kg-bw/day) (TherapeuticCategory: cardiotonic) of 0.0325.

For N[C@@H](Cc1cc(I)c(Oc2ccc(O)c(I)c2)c(I)c1)C(=O)O, the maximum recommended daily dose (mmol/kg-bw/day) (TherapeuticCategory: thyroid hormone) was 2.57e-06.

CC(C)CCON=O was tested, and the maximum recommended daily dose (mmol/kg-bw/day) (TherapeuticCategory: none) was 0.0427.

Molecule CN(C)CCN(Cc1ccccc1)c1ccccn1 has a maximum recommended daily dose (mmol/kg-bw/day) (TherapeuticCategory: antihistaminic) of 0.0392.

For CN1CCN(CCCN2c3ccccc3Sc3ccc(Cl)cc32)CC1, the maximum recommended daily dose (mmol/kg-bw/day) (TherapeuticCategory: antiemetic) was 0.00447.

With Cc1ccccc1OCC(O)CO (stereo not given) the maximum recommended daily dose (mmol/kg-bw/day) [3] was 0.274.

For CN(C)CCOC(C)(c1ccccc1)c1ccc(Cl)cc1 (stereo not given), the maximum recommended daily dose (mmol/kg-bw/day) (TherapeuticCategory: antiamebic) was 0.123.

O=C1CSC2(CCN(CCCN3c4ccccc4Sc4ccc(Cl)cc43)CC2)N1 showed a maximum recommended daily dose (mmol/kg-bw/day) [1] of 0.0155.

Molecule CC(c1cc2ccccc2s1)N(O)C(N)=O (stereo not given) has a maximum recommended daily dose (mmol/kg-bw/day) (TherapeuticCategory: antiasthmatic, anti inflammatry) of 0.169.

C[C@]12COC(=O)C[C@@H]1CC[C@@H]1[C@@H]2CC[C@@]2(C)[C@H]1CC[C@]2(C)O showed a maximum recommended daily dose (mmol/kg-bw/day) (TherapeuticCategory: androgen) of 0.00109.

For O=C1C(=O)c2ccccc2C(O)=C1C1CCC(c2ccc(Cl)cc2)CC1 (stereo not given), the maximum recommended daily dose (mmol/kg-bw/day) (TherapeuticCategory: antiprotozoal, antimalarial, antifungal) was 0.102.
